This is an account of results in US20230364273A1, “AGENT FOR DETECTING INTERACTION BETWEEN TISSUES AND ORGANS” (HAMAMATSU PHOTONICS K.K., priority 2020, published 2023).

The data set concerns mitochondrial complex I (MC-I). Description: PET measurement of the amount (SUV) of MC-I probe accumulated in each tissue and organ of type 2 diabetes model rats (Test Examples 1 and 2). In kind it is in vivo. To be noted: brain, heart, brown adipocytes, pancreas, liver, kidneys; 5, 8, 16, 26 weeks of age; i.v. about 20 MBq; except brown adipocytes and kidneys at 5 weeks of age (FIG. 4). From the text:
Male Zucker Leprfa/Leprfa rats (hereinafter also referred to as “fatty rats”) that develop pathological conditions similar to type 2 diabetes of human adults and male Zucker Leprfa/+ rats (hereinafter also referred to as “lean rats”) as controls thereof were purchased from Charles River Laboratories Japan, Inc., and used for PET measurement at 5, 8, 16, and 26 weeks of age, and the amount of [^18F]BCPP-BF accumulated in each tissue and organ (brain, heart, kidneys, liver, and brown adipocytes (brown adipose tissue)) was measured.
The rats were anesthetized with isoflurane and fixed in a gantry of an animal PET camera (SHR-38000, manufactured by Hamamatsu Photonics K.K.). […]
After the completion of the PET measurement, a region of interest was set on the pancreas identified by an integrated PET image 40 to 60 minutes after the administration of D-[^11C]MT, and the amount of [^18F]BCPP-BF accumulated in the region of interest was calculated. Subsequently, the calculated accumulation amount was normalized by the amount of radioactivity administered and the body weight of each individual and defined as an amount (amount (SUV) of radioactivity accumulated) of [^18F]BCPP-BF accumulated in the pancreas. […] The amount (SUV) of radioactivity accumulated in the brain was calculated by excising the brains from the rats immediately after the PET measurement. […]

As for `CC(C)(C)n1ncc(OCc2ccc(OCCCC[18F])nc2)c(Cl)c1=O` [[^18F]BCPP-BF], the “accumulation amount (SUV) in each tissue and organ, fatty rats versus lean rats” value was “significantly lower”.
